{"source": "ChEMBL document CHEMBL1142082", "about": "“Oral versus intravenous flucytosine in patients with human immunodeficiency virus-associated cryptococcal meningitis” (Antimicrob Agents Chemother, 2007)", "key": {"Homo sapiens [1]": {"test_system": "Homo sapiens", "experiment": "Effect on hemoglobin level in intravenously dosed HIV associated cryptococcal meningitis patient relative to control", "format": "functional"}, "Homo sapiens [2]": {"test_system": "Homo sapiens", "experiment": "Effect on neutrophils level in orally dosed HIV associated cryptococcal meningitis patient relative to control", "format": "functional"}, "Homo sapiens [3]": {"test_system": "Homo sapiens", "experiment": "Effect on neutrophils level in intravenously dosed HIV associated cryptococcal meningitis patient relative to control", "format": "functional"}, "Homo sapiens [4]": {"test_system": "Homo sapiens", "experiment": "Effect on platelet count in orally dosed HIV associated cryptococcal meningitis patient relative to control", "format": "functional"}, "Homo sapiens [5]": {"test_system": "Homo sapiens", "experiment": "Effect on platelet count in intravenously dosed HIV associated cryptococcal meningitis patient relative to control", "format": "functional"}, "Homo sapiens [6]": {"test_system": "Homo sapiens", "experiment": "Effect on alanine transferase level in orally dosed HIV associated cryptococcal meningitis patient relative to control", "format": "functional"}, "Homo sapiens [7]": {"test_system": "Homo sapiens", "experiment": "Effect on alanine transferase level in intravenously dosed HIV associated cryptococcal meningitis patient relative to control", "format": "functional"}, "Homo sapiens [8]": {"test_system": "Homo sapiens", "experiment": "Effect on aspartate aminotransferase level in orally dosed HIV associated cryptococcal meningitis patient relative to control", "format": "functional"}, "Homo sapiens [9]": {"test_system": "Homo sapiens", "experiment": "Effect on aspartate aminotransferase level in intravenously dosed HIV associated cryptococcal meningitis patient relative to control", "format": "functional"}, "Homo sapiens [10]": {"test_system": "Homo sapiens", "experiment": "Effect on creatinine clearance in orally dosed HIV associated cryptococcal meningitis patient relative to control", "format": "functional"}, "Homo sapiens [11]": {"test_system": "Homo sapiens", "experiment": "Effect on creatinine clearance in intravenously dosed HIV associated cryptococcal meningitis patient relative to control", "format": "functional"}, "[12]": {"experiment": "Fungicidal activity in HIV associated Cryptococcal meningitis patient", "format": "functional, Cryptococcus"}, "[13]": {"experiment": "Fungicidal activity in orally dosed HIV associated cryptococcal meningitis patient", "format": "functional, Cryptococcus"}, "[14]": {"experiment": "Fungicidal activity in intravenously dosed HIV associated cryptococcal meningitis patient", "format": "functional, Cryptococcus"}, "Homo sapiens [15]": {"test_system": "Homo sapiens", "experiment": "Effect on hemoglobin level in orally dosed HIV associated cryptococcal meningitis patient after 2 weeks relative to baseline", "format": "functional"}, "Homo sapiens [16]": {"test_system": "Homo sapiens", "experiment": "Effect on hemoglobin level in intravenously dosed HIV associated cryptococcal meningitis patient after 2 weeks relative to baseline", "format": "functional"}, "Homo sapiens [17]": {"test_system": "Homo sapiens", "experiment": "Effect on neutrophils level in orally dosed HIV associated cryptococcal meningitis patient after 2 weeks relative to baseline", "format": "functional"}, "Homo sapiens [18]": {"test_system": "Homo sapiens", "experiment": "Effect on neutrophils level in intravenously dosed HIV associated cryptococcal meningitis patient after 2 weeks relative to baseline", "format": "functional"}, "Homo sapiens [19]": {"test_system": "Homo sapiens", "experiment": "Effect on platelet count in orally dosed HIV associated cryptococcal meningitis patient after 2 weeks relative to baseline", "format": "functional"}, "Homo sapiens [20]": {"test_system": "Homo sapiens", "experiment": "Effect on platelet count in intravenously dosed HIV associated cryptococcal meningitis patient after 2 weeks relative to baseline", "format": "functional"}, "Homo sapiens [21]": {"test_system": "Homo sapiens", "experiment": "Effect on alanine transferase level in orally dosed HIV associated cryptococcal meningitis patient after 2 weeks relative to baseline", "format": "functional"}, "Homo sapiens [22]": {"test_system": "Homo sapiens", "experiment": "Effect on alanine transferase level in intravenously dosed HIV associated cryptococcal meningitis patient after 2 weeks relative to baseline", "format": "functional"}, "Homo sapiens [23]": {"test_system": "Homo sapiens", "experiment": "Effect on aspartate aminotransferase level in orally dosed HIV associated cryptococcal meningitis patient after 2 weeks relative to baseline", "format": "functional"}, "Homo sapiens [24]": {"test_system": "Homo sapiens", "experiment": "Effect on aspartate aminotransferase level in intravenously dosed HIV associated cryptococcal meningitis patient after 2 weeks relative to baseline", "format": "functional"}, "Homo sapiens [25]": {"test_system": "Homo sapiens", "experiment": "Effect on hemoglobin level in orally dosed HIV associated cryptococcal meningitis patient relative to control", "format": "functional"}, "Homo sapiens [26]": {"test_system": "Homo sapiens", "experiment": "Effect on creatinine clearance in orally dosed HIV associated cryptococcal meningitis patient after 2 weeks relative to baseline", "format": "functional"}, "Homo sapiens [27]": {"test_system": "Homo sapiens", "experiment": "Effect on creatinine clearance in intravenously dosed HIV associated cryptococcal meningitis patient after 2 weeks relative to baseline", "format": "functional"}, "[28]": {"experiment": "Oral clearance in HIV associated cryptococcal meningitis patient", "format": "ADME, organism-based", "conditions": "human, in vivo"}, "Homo sapiens [29]": {"test_system": "Homo sapiens", "experiment": "Volume of distribution in orally dosed HIV associated cryptococcal meningitis patient normalized to weight", "format": "ADME, organism-based", "conditions": "in vivo, po"}, "[30]": {"experiment": "Clearance in intravenously dosed HIV associated cryptococcal meningitis patient", "format": "ADME, organism-based", "conditions": "human, in vivo, iv"}, "[31]": {"experiment": "Volume of distribution in intravenously dosed HIV associated cryptococcal meningitis patient normalized to weight", "format": "ADME, organism-based", "conditions": "human, in vivo, iv; read-out: Vdss"}, "[32]": {"experiment": "AUC in orally dosed HIV associated cryptococcal meningitis patient at 24 hrs", "format": "ADME, organism-based", "design": "time < 24 hr, route oral", "conditions": "human, plasma, po"}, "[33]": {"experiment": "AUC in intravenously dosed HIV associated cryptococcal meningitis patient at 24 hrs", "format": "ADME, organism-based", "design": "time < 24 hr, route intravenous", "conditions": "human, plasma, iv"}}}
{"smiles": "Nc1nc(=O)[nH]cc1F", "note": "[FLUCYTOSINE]", "values": [{"measurement": "Activity", "setting": "Homo sapiens [1]", "result": 11.2, "unit": "g/dL"}, {"measurement": "Activity", "setting": "Homo sapiens [2]", "result": "4.5 10^9/L"}, {"measurement": "Activity", "setting": "Homo sapiens [3]", "result": "5.6 10^9/L"}, {"measurement": "Activity", "setting": "Homo sapiens [4]", "result": "263 10^9/L"}, {"measurement": "Activity", "setting": "Homo sapiens [5]", "result": "249 10^9/L"}, {"measurement": "Activity", "setting": "Homo sapiens [6]", "result": 43, "unit": "U/L"}, {"measurement": "Activity", "setting": "Homo sapiens [7]", "result": 38, "unit": "U/L"}, {"measurement": "Activity", "setting": "Homo sapiens [8]", "result": 40, "unit": "U/L"}, {"measurement": "Activity", "setting": "Homo sapiens [9]", "result": 33, "unit": "U/L"}, {"measurement": "Creatinine_CL", "setting": "Homo sapiens [10]", "result": 75, "unit": "mL/min"}, {"measurement": "Creatinine_CL", "setting": "Homo sapiens [11]", "result": 74, "unit": "mL/min"}, {"measurement": "log10cfu/day", "setting": "[12]", "result": -0.46}, {"measurement": "log10cfu/day", "setting": "[13]", "result": -0.48}, {"measurement": "log10cfu/day", "setting": "[14]", "result": -0.43}, {"measurement": "Activity", "setting": "Homo sapiens [15]", "result": 70, "unit": "%"}, {"measurement": "Activity", "setting": "Homo sapiens [16]", "result": 78, "unit": "%"}, {"measurement": "Activity", "setting": "Homo sapiens [17]", "result": 73, "unit": "%"}, {"measurement": "Activity", "setting": "Homo sapiens [18]", "result": 59, "unit": "%"}, {"measurement": "Activity", "setting": "Homo sapiens [19]", "result": 112, "unit": "%"}, {"measurement": "Activity", "setting": "Homo sapiens [20]", "result": 83, "unit": "%"}, {"measurement": "Activity", "setting": "Homo sapiens [21]", "result": 94, "unit": "%"}, {"measurement": "Activity", "setting": "Homo sapiens [22]", "result": 86, "unit": "%"}, {"measurement": "Activity", "setting": "Homo sapiens [23]", "result": 69, "unit": "%"}, {"measurement": "Activity", "setting": "Homo sapiens [24]", "result": 100, "unit": "%"}, {"measurement": "Activity", "setting": "Homo sapiens [25]", "result": 10.6, "unit": "g/dL"}, {"measurement": "Activity", "setting": "Homo sapiens [26]", "result": 83, "unit": "%"}, {"measurement": "Activity", "setting": "Homo sapiens [27]", "result": 76, "unit": "%"}, {"measurement": "CL/F", "setting": "[28]", "result": 112, "unit": "mL/min"}, {"measurement": "Vdss", "setting": "Homo sapiens [29]", "result": 1.41, "unit": "L/kg"}, {"measurement": "clearance", "setting": "[30]", "result": 63.3, "unit": "mL/min"}, {"measurement": "Vd", "setting": "[31]", "result": 0.94, "unit": "L/kg"}, {"measurement": "AUC at 24 h", "setting": "[32]", "result": 576, "unit": "µg·h/mL"}, {"measurement": "AUC at 24 h", "setting": "[33]", "result": 1290, "unit": "µg·h/mL"}]}
